Common to all, as to assay type: cell-based, human
The test system of test [1] is lymphoblasts. As to the kind of experiment: Membrane potential of lymphoblasts by DiOC6(3) fluorescence intensity ratio, with/without compound. The source says: Three groups of immortalized lymphoblast samples were obtained from the Human Genetic Mutant Cell Repository (Coriell Institute for Medical Research, Camden N.J.). The samples are shown in Table 4 below and included six from affected (bipolar I disorder) patients (A1 through A6), six from their siblings (S1 through S6), and six from unrelated normal control subjects matched by age and sex (N1 through N6).
(§1) The membrane potentials of the bipolar I cells shown in Table 4 above (as well as in all other experiments, except where indicated) were measured using the following protocol. The cells cultured in the media described above were centrifuged at 210 g for 5 minutes at room temperature, then suspended in 3 ml of K^+-containing stock buffer (5 mM KCl, 4 mM NaHCO3, 5 mM HEPES, 134 mM NaCl, 2.3 mM CaCl2, and 5 mM glucose). The cells were counted and the desired number of cells were again suspended in the K^+-containing buffer. The membrane potentials were measured using 3,3′-dihexyloxacarbocyanine iodide DiOC6(3), a cell-permeant, voltage sensitive, green-fluorescent dye (Molecular Probes Inc. Eugene, Oreg. USA). […]
(§2) A fluorescence spectrometer (F2500 Hitachi, Japan) was used for the measurement of the membrane potential by measuring the fluorescence intensity of DiOC6(3), which is directly proportional to the membrane potential. The intensity of fluorescence was measured at an excitation wavelength of 488 nm and an output wavelength of 540 nm. […]
Membrane potential was expressed according to fluorescence intensity using the following equation: I=CV, wherein I is the fluorescence intensity of a lipophilic fluorescent dye DiOC6(3) being only one example of such a dye); V is the voltage or membrane potential; and C is a constant that can vary depending on a number of factors such as, but not limited to, temperature, lamp intensity, number of cells, concentration of the fluorescent dye, incubation time, and lipid composition of cells used. […]
Membrane potentials were also measured in K^+-free buffer to enable comparison with membrane potentials in K^+-containing buffer. […]

Test [2] deals with lymphoblasts. The experiment in a line: Rate of drop in membrane potential (repolarization rate) of lymphoblasts, with/without compound. The conditions noted are these: 30 min, K+-free and K+-containing buffer. Here is the method:
as §1, §2
The rate of drop in membrane potential after incubation with the protein kinase C (PKC) activator, phorbol 12-myristate 13-acetate (PMA), was compared in affected cells to that of unaffected cells. The membrane potential of these cells was determined by measuring the fluorescence intensity as described above. […]

Test [3] deals with whole blood cells. The experiment in a line: Membrane potential ratio of whole blood cells, clinical trials (DiOC6(3) fluorescence). The following applies: for ratio of intensity in K+-free buffer with 30 μM ethacrynate to intensity in K+-containing buffer without ethacrynate, Median: plate reader. Here is the method: Because the volume of blood required to collect enough lymphocytes was beyond that permitted by the current protocol, the membrane potential of whole blood cells was determined. The volume of whole blood required was approximately 1 ml. The blood samples were kept on ice until they were stored at 4° C. All of the samples were tested within 48 hours.
Whole blood samples drawn from patients and controls were suspended in K^+-containing buffer without ethacrynate and in K^+-free buffer with 30 μM ethacrynate or with 100 mM sorbitol. The fluorescent dye DiOC6(3) was added to both suspensions and incubated for 30 minutes. The cell suspensions loaded with the dye were centrifuged, drained and resuspended in the respective buffers. The fluorescence intensity was measured for 10 seconds and the ratio of the intensity in K^+-free buffer to the intensity in K^+-containing buffer was calculated.
Whole blood samples drawn from patients and controls were suspended both in K^+-containing buffer and in K^+-free buffer with 30 μM ethacrynate or with 100 μM sorbitol. The fluorescent dye DiOC6(3) was added to both suspensions and incubated for 30 minutes. The cell suspensions loaded with the dye were centrifuged, drained and resuspended in the respective buffers. The fluorescence intensity was measured for 10 seconds and the ratio of the intensity in K^+-free buffer to the intensity in K^+-containing buffer was calculated.
An individual patient's cell sample was tested as described herein and six to twelve ratios were calculated. These values were treated as a group and compared with a normal control group (negative control) and a bipolar group (positive control).
(§3) Cells from control, bipolar I and bipolar II individuals were compared amongst each other as described herein. Whole blood samples drawn from patients and controls and aliquots were suspended either in K^+-containing buffer without ethacrynate, or in K^+-free buffer with 30 μM ethacrynate. The fluorescent dye DiOC6(3) was added to the suspensions and incubated for 30 minutes. The cell suspensions loaded with the dye were centrifuged, drained and resuspended in the respective buffers. The fluorescence intensity was measured for 10 seconds and the ratio of the intensity in K^+-free buffer to the intensity in K^+-containing buffer was calculated. Plate Reader (PerkinsElmer Victor V) was used for intensity measurements).
as §3, with “ADHD” for “bipolar II”

For test [4], the system named is whole blood cells. The description is as above. The conditions noted are these: open trial; bipolar patients; 100 mM sorbitol; FIG. 13.

As for `CC[C@@]1([C@@H]2O[C@@H]([C@H]3O[C@@](O)(CO)[C@H](C)C[C@@H]3C)C[C@@H]2C)CC[C@H]([C@]2(C)CC[C@]3(C[C@H](O)[C@@H](C)[C@@H]([C@@H](C)[C@@H](OC)[C@H](C)C(=O)O)O3)O2)O1` [monensin], the “intensity ratio (membrane potential with monensin/without monensin) of affected cells compared with unaffected cells” value with lymphoblasts [1] (K+-free buffer, 10 μM monensin, 30 min, t-test P=0.009, FIG. 8) is “significantly lower”.

As to `C=C(CC)C(=O)c1ccc(OCC(=O)O)c(Cl)c1Cl` [ethacrynate], the “relative rate of repolarization in affected cells compared with unaffected cells” value in the test with lymphoblasts [2] (30 μM ethacrynate, P=0.041, FIG. 7) is reported as “significantly higher”. Further, the “ratio of fluorescence intensity in K+-free buffer containing 30 μM ethacrynate to that in K+-containing buffer without ethacrynate, Mean” value was 0.850 in the test with whole blood cells [3] (blind clinical trial, Controls); 0.870 in the test on whole blood cells [3] (blind clinical trial, Schizophr.); 0.766 in the test on whole blood cells [3] (individual Patient A (diagnosed bipolar)); 0.780 in the test on whole blood cells [3] (open clinical trial, Bipolars). Further, the “ratio of fluorescence intensity in K+-free buffer containing 30 μM ethacrynate to that in K+-containing buffer without ethacrynate, Median” value in the test with whole blood cells [3] (blind clinical trial, Controls) came to 0.850. The “ratio of intensity in K+-free buffer with 30 μM ethacrynate to intensity in K+-containing buffer without ethacrynate, Median” value turned out to be 0.808 with whole blood cells [3] (ADHD group), 0.606 in the test on whole blood cells [3] (BPD I group), 0.648 with whole blood cells [3] (BPD II group) and 0.676 in the test with whole blood cells [3] (Negative (control) group). The “relative intensity ratio of affected cells compared with unaffected cells” value in the test on lymphoblasts [1] (30 μM ethacrynate, K+-free vs K+-containing buffer, t-test P=0.009, FIG. 5) was “significantly higher”. Also, the “intensity ratio (membrane potential with ethacrynate/without ethacrynate) of affected cells compared with unaffected cells” value in the test on lymphoblasts [1] (K+-free buffer, 30 μM ethacrynate, t-test P=0.032, FIG. 6) is reported as “significantly higher”.

Consider `CCCCCCCCCCCCCC(=O)O[C@@H]1[C@@H](C)[C@@]2(O)[C@@H](C=C(CO)C[C@]3(O)C(=O)C(C)=C[C@@H]23)[C@@H]2C(C)(C)[C@]12OC(C)=O` [PMA, phorbol 12-myristate 13-acetate], for which, in the test with lymphoblasts [2] (2 μM PMA, P=0.046, FIG. 10), the “relative ratio of repolarization rates in affected cells compared with unaffected cells” value is “significantly lower”.

`OC[C@@H](O)[C@@H](O)[C@H](O)[C@@H](O)CO` [sorbitol]: the “fluorescence intensity ratio of bipolar cells with sorbitol in K+-free buffer, compared with ethacrynate” value in the test with whole blood cells [4] was “comparable to the results with ethacrynate”.

These data come from US7906300B2, “Methods for diagnosing an attention-deficit/Hyperactivity disorder” (PsychNostics, LLC, priority 2005, dated 2011).
